Laboratory results taken from ChEMBL document CHEMBL4038347, “Converting Teixobactin into a Cationic Antimicrobial Peptide (AMP)” (2017).
In brackets after ≈: the same amount, converted by molar mass. Where a SMILES comes first, the peptide text is derived from it. Bridges are numbered along the chain shown (N, C = ends). [ ]: non-standard residue; d: D form. d(aIle) = CC[C@H](C)[C@@H](N)C(=O)O; dNMeF = CN[C@H](Cc1ccccc1)C(=O)O; Orn = NCCC[C@H](N)C(=O)O

Key:
Type in all cases: functional
[1] = tested on: Escherichia coli; assay: Antibacterial activity against Escherichia coli ATCC 25922 after 24 hrs by broth microdilution method; conditions: ATCC 25922, 24 h
[2] = tested on: Pseudomonas aeruginosa; assay: Antibacterial activity against Pseudomonas aeruginosa ATCC 27853 after 24 hrs by broth microdilution method; conditions: ATCC 27853, 24 h
[3] = tested on: Bacillus subtilis; assay: Antibacterial activity against Bacillus subtilis ATCC 6051 after 24 hrs by broth microdilution method; conditions: ATCC 6051, 24 h
[4] = tested on: Staphylococcus aureus; assay: Antibacterial activity against Staphylococcus aureus ATCC 29213 after 24 hrs by broth microdilution method; conditions: ATCC 29213, 24 h

| SMILES | MIC [1] [µg/mL] | MIC [2] [µg/mL] | MIC [3] [µg/mL] | MIC [4] [µg/mL] |
| --- | --- | --- | --- | --- |
| CC[C@H](C)[C@H](NC(=O)[C@@H](Cc1ccccc1)NC)C(=O)N[C@@H](CCCCN)C(=O)N[C@H](CCCCN)C(=O)N[C@@H](C(=O)N[C@H](C(=O)N[C@@H](CO)C(=O)N[C@H]1C(=O)N[C@@H](C)C(=O)N[C@@H](CCCNC(=N)N)C(=O)N[C@@H]([C@@H](C)CC)C(=O)O[C@H]1C)[C@@H](C)CC)[C@@H](C)CC | 64 (≈ 49.8 µM) | 64 (≈ 49.8 µM) | 4 (≈ 3.11 µM) | 32 (≈ 24.9 µM) |
| CC[C@H](C)[C@H](NC(=O)[C@@H](Cc1ccccc1)NC)C(=O)N[C@@H](CCCCN)C(=O)N[C@H](CCCCN)C(=O)N[C@@H](C(=O)N[C@H](C(=O)N[C@@H](CO)C(=O)N[C@H]1C(=O)N[C@@H](C)C(=O)N[C@@H](CCCCN)C(=O)N[C@@H]([C@@H](C)CC)C(=O)O[C@H]1C)[C@@H](C)CC)[C@@H](C)CC (H-[dNMeF]IK[dK][d(aIle)]IS[dT]AKI; ester 8-C) | 32 (≈ 25.4 µM) | 32 (≈ 25.4 µM) | 1 (≈ 0.795 µM) | 8 (≈ 6.36 µM) |
| CC[C@H](C)[C@H](NC(=O)[C@@H](Cc1ccccc1)NC)C(=O)N[C@@H](CCCCN)C(=O)N[C@H](CCCCN)C(=O)N[C@@H](C(=O)N[C@H](C(=O)N[C@@H](CO)C(=O)N[C@H]1C(=O)N[C@@H](C)C(=O)N[C@@H](CCCN)C(=O)N[C@@H]([C@@H](C)CC)C(=O)O[C@H]1C)[C@@H](C)CC)[C@@H](C)CC (H-[dNMeF]IK[dK][d(aIle)]IS[dT]A[Orn]I; ester 8-C) | 64 (≈ 51.5 µM) | 64 (≈ 51.5 µM) | 4 (≈ 3.22 µM) | 16 (≈ 12.9 µM) |
| CC[C@H](C)[C@H](NC(=O)[C@@H](Cc1ccccc1)NC)C(=O)N[C@@H](CCCCN)C(=O)N[C@H](CCCCN)C(=O)N[C@@H](C(=O)N[C@H](C(=O)N[C@@H](CCCCN)C(=O)N[C@H]1C(=O)N[C@@H](C)C(=O)N[C@@H](CCCN)C(=O)N[C@@H]([C@@H](C)CC)C(=O)O[C@H]1C)[C@@H](C)CC)[C@@H](C)CC (H-[dNMeF]IK[dK][d(aIle)]IK[dT]A[Orn]I; ester 8-C) | 32 (≈ 24.9 µM) | 64 (≈ 49.8 µM) | 16 (≈ 12.5 µM) | 256 (≈ 199 µM) |

Continued, values first:

| MIC [1] [µg/mL] | MIC [2] [µg/mL] | MIC [3] [µg/mL] | MIC [4] [µg/mL] | SMILES |
| --- | --- | --- | --- | --- |
| 32 (≈ 25.4 µM) | 64 (≈ 50.8 µM) | 0.5 (≈ 0.397 µM) | 2 (≈ 1.59 µM) | CC[C@H](C)[C@H](NC(=O)[C@@H](Cc1ccccc1)NC)C(=O)N[C@@H](CO)C(=O)N[C@H](CCC(N)=O)C(=O)N[C@@H](C(=O)N[C@H](C(=O)N[C@@H](CO)C(=O)N[C@H]1C(=O)N[C@@H](CCCCN)C(=O)N[C@@H](CCCN)C(=O)N[C@@H]([C@@H](C)CC)C(=O)O[C@H]1C)[C@@H](C)CC)[C@@H](C)CC |
| 512 (≈ 412 µM) | 512 (≈ 412 µM) | 16 (≈ 12.9 µM) | 128 (≈ 103 µM) | CC[C@H](C)[C@H](NC(=O)[C@@H](Cc1ccccc1)NC)C(=O)N[C@@H](CO)C(=O)N[C@H](CCC(N)=O)C(=O)N[C@@H](C(=O)N[C@H](C(=O)N[C@@H](CCCCN)C(=O)N[C@H]1C(=O)N[C@@H](C)C(=O)N[C@@H](CCCN)C(=O)N[C@@H]([C@@H](C)CC)C(=O)O[C@H]1C)[C@@H](C)CC)[C@@H](C)CC |
| 32 (≈ 24.3 µM) | 128 (≈ 97.4 µM) | 1 (≈ 0.761 µM) | 4 (≈ 3.04 µM) | CC[C@H](C)[C@H](NC(=O)[C@@H](Cc1ccccc1)NC)C(=O)N[C@@H](CCCCN)C(=O)N[C@H](CCC(N)=O)C(=O)N[C@@H](C(=O)N[C@H](C(=O)N[C@@H](CO)C(=O)N[C@H]1C(=O)N[C@@H](CCCCN)C(=O)N[C@@H](CCCCN)C(=O)N[C@@H]([C@@H](C)CC)C(=O)O[C@H]1C)[C@@H](C)CC)[C@@H](C)CC (stereo in doubt) |
| 128 (≈ 97.4 µM) | 256 (≈ 195 µM) | 8 (≈ 6.09 µM) | 128 (≈ 97.4 µM) | CC[C@H](C)[C@H](NC(=O)[C@@H](Cc1ccccc1)NC)C(=O)N[C@@H](CO)C(=O)N[C@H](CCC(N)=O)C(=O)N[C@@H](C(=O)N[C@H](C(=O)N[C@@H](CCCCN)C(=O)N[C@H]1C(=O)N[C@@H](CCCCN)C(=O)N[C@@H](CCCCN)C(=O)N[C@@H]([C@@H](C)CC)C(=O)O[C@H]1C)[C@@H](C)CC)[C@@H](C)CC |
